From patent publication US20100273814A1, “((PHENYL)IMIDAZOLYL)METHYLHETEROARYL COMPOUNDS” (priority 2007, published 2010)

Tests used:
Assay type in all cases: cell-based
alpha2A receptor = target: T1, alpha2A receptor (Homo sapiens, UniProt P08913); assay: Receptor Selection and Amplification Technology (RSAT) assay, alpha2A; conditions: RSAT; for EC50: transfected NIH-3T3 cells, value outside brackets, read-out: Alpha 2A EC50 (potency); for Alpha 2A intrinsic activity (efficacy): ratio of maximal effect to that of standard full agonist brimonidine (UK14304), value in brackets
T1 construct: expressed in transfected cells; host or cells: NIH-3T3 cells
T1 sequence (P08913 1-465): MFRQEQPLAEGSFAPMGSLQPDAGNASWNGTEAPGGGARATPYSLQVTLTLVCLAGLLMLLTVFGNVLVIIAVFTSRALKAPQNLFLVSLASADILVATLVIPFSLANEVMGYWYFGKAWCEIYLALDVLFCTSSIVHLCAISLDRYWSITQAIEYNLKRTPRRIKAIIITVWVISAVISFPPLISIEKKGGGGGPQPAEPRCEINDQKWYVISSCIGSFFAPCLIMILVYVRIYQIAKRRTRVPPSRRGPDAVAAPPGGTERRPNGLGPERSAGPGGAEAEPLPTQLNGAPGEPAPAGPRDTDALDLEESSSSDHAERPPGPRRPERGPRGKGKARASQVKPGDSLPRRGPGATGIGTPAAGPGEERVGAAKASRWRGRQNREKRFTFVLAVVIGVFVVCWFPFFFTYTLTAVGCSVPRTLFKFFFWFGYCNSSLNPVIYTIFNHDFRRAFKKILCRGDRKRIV
Method: (§1) Receptor Selection and Amplification Technology (RSAT) Assay
(§2) The RSAT assay measures a receptor-mediated loss of contact inhibition that results in selective proliferation of receptor-containing cells in a mixed population of confluent cells. The increase in cell number is assessed with an appropriate transfected marker gene such as β-galactosidase, the activity of which can be easily measured in a 96-well format. Receptors that activate the G protein, Gq, elicit this response. Alpha2 receptors, which normally couple to Gi, activate the RSAT response when coexpressed with a hybrid Gq protein that has a Gi receptor recognition domain, called Gq/i5.
(§3) NIH-3T3 cells are plated at a density of 2×10^6 cells in 15 cm dishes and maintained in Dulbecco's modified Eagle's medium supplemented with 10% calf serum. One day later, cells are cotransfected by calcium phosphate precipitation with mammalian expression plasmids encoding p-SV-β-galactosidase (5-10 μg), receptor (1-2 μg) and G protein (1-2 μg). 40 μg salmon sperm DNA may also be included in the transfection mixture. Fresh media is added on the following day and 1-2 days later, cells are harvested and frozen in 50 assay aliquots. Cells are thawed and […] added to 100 aliquots of various concentrations of drugs in triplicate in 96-well dishes. Incubations continue 72-96 hr at 37° C. After washing with phosphate-buffered saline, β-galactosidase enzyme activity is determined by adding 200 μl of the chromogenic substrate (consisting of 3.5 mM o-nitrophenyl-β-D-galactopyranoside and 0.5% nonidet P-40 in phosphate buffered saline), incubating overnight at 30° C. and measuring optical density at 420 nm. The absorbance is a measure of enzyme activity, which depends on cell number and reflects a receptor-mediated cell proliferation. The efficacy or intrinsic activity is calculated as a ratio of the maximal effect of the drug to the maximal effect of a standard full agonist for each receptor subtype. Brimonidine, also called UK14304, the chemical structure of which is shown below, is used as the standard agonist for the alpha2A, alpha2B and alpha2C receptors. The EC50 is the concentration at which the drug effect is half of its maximal effect.
(§4) EC50 values are nanomolar. ND stands for “not determinable” at concentrations less than 10 micromolar. IA stands for “intrinsic activity.”

alpha2B receptor = target: T2, alpha2B receptor (Homo sapiens, UniProt P18089); assay: Receptor Selection and Amplification Technology (RSAT) assay, alpha2B; conditions: RSAT; for EC50: transfected NIH-3T3 cells, value outside brackets, read-out: Alpha 2B EC50 (potency); for Alpha 2B intrinsic activity (efficacy): ratio of maximal effect to that of standard full agonist brimonidine (UK14304), value in brackets
T2 construct: expressed in transfected cells; host or cells: NIH-3T3 cells
T2 sequence (P18089 1-450): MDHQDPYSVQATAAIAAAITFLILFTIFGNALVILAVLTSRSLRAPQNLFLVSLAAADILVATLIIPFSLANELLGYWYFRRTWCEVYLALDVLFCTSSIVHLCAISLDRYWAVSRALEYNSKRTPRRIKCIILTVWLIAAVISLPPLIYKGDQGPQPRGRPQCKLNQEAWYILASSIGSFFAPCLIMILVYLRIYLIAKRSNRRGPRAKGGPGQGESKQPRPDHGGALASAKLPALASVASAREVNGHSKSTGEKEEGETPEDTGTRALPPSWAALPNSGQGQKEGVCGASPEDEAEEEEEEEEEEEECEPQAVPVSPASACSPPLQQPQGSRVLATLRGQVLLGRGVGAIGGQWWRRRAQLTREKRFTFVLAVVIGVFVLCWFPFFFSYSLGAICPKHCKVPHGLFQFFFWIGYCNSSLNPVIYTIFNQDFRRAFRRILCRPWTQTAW
Method: as §1, §2, §3, §4

alpha2C receptor = target: T3, alpha2C receptor (Homo sapiens, UniProt P18825); assay: Receptor Selection and Amplification Technology (RSAT) assay, alpha2C; conditions: RSAT; for EC50: transfected NIH-3T3 cells, value outside brackets, read-out: Alpha 2C EC50 (potency); for Alpha 2C intrinsic activity (efficacy): ratio of maximal effect to that of standard full agonist brimonidine (UK14304), value in brackets
T3 construct: expressed in transfected cells; host or cells: NIH-3T3 cells
T3 sequence (P18825 1-462): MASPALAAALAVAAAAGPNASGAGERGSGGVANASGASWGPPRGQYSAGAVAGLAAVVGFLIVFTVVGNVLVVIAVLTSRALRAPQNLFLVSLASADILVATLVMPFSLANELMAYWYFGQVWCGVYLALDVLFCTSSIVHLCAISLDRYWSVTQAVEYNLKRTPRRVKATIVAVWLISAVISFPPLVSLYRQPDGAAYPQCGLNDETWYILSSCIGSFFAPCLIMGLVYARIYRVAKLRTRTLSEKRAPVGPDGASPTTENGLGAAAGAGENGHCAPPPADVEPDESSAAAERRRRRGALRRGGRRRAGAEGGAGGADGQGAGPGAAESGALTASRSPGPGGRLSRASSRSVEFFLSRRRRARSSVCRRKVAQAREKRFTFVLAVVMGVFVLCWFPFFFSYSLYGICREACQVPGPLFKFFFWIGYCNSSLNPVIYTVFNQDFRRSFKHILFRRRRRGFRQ
Method: as §1, §2, §3, §4

Row | Compound | EC50 (alpha2A receptor) [nM] | Alpha 2A intrinsic activity (efficacy) (alpha2A receptor) | EC50 (alpha2B receptor) [nM] | Alpha 2B intrinsic activity (efficacy) (alpha2B receptor) | EC50 (alpha2C receptor) [nM] | Alpha 2C intrinsic activity (efficacy) (alpha2C receptor)
1 | Cc1ccccc1C(c1cccnc1)c1c[nH]cn1 (stereo not drawn) [3-((2-methylphenyl)(1H-imidazol-5-yl)methyl)pyridine] | > 10000 | 0.06 | 259 | 0.61 | > 10000 | 0.29
2 | Cc1cccc(C(c2ccncc2)c2c[nH]cn2)c1C (stereo not drawn) [4-((2,3-dimethylphenyl)(1H-imidazol-5-yl)methyl)pyridine] | 1510 | 0.32 | 4.4 | 1.07 | 605 | 0.49
3 | Fc1c(Cl)cccc1C(c1ccccn1)c1cnc[nH]1 (stereo not drawn) [2-((3-chloro-2-fluorophenyl)(1H-imidazol-5-yl)methyl)pyridine] | > 10000 | 0.07 | 32 | 1.21 | 177 | 0.49
4 | Cc1c(Cl)cccc1C(c1ccncc1)c1c[nH]cn1 (stereo not drawn) [4-((3-chloro-2-methylphenyl)(1H-imidazol-5-yl)methyl)pyridine] | > 10000 | 0.11 | 10.3 | 1.10 | 83 | 0.46
5 | Fc1cccc(C(c2ccccn2)c2c[nH]cn2)c1 (stereo not drawn) [2-((3-fluorophenyl)(1H-imidazol-5-yl)methyl)pyridine] | > 10000 | 0.14 | 273 | 0.64 | > 10000 | 0.25
6 | Cc1c(F)cccc1C(c1ccccn1)c1c[nH]cn1 (stereo not drawn) [2-((3-fluoro-2-methylphenyl)(1H-imidazol-5-yl)methyl)pyridine] | > 10000 | 0.04 | 36 | 1.07 | 440 | 0.38
7 | Cc1c(Cl)cccc1C(c1ccccn1)c1c[nH]cn1 (stereo not drawn) | > 10000 | 0.12 | 7.8 | 1.39 | 495 | 0.53
8 | Cc1ccccc1C(c1ccncc1)c1c[nH]cn1 (stereo not drawn) [4-((2-methylphenyl)(1H-imidazol-5-yl)methyl)pyridine] | > 10000 | 0.06 | 63 | 0.82 | 265 | 1.08
9 | Fc1c(C(c2cccnc2)c2c[nH]cn2)cccc1C(F)(F)F (stereo not drawn) [3-((2-fluoro-3-(trifluoromethyl)phenyl)(1H-imidazol-5-yl)methyl)pyridine] | > 10000 | 0.23 | 5.2 | 1.24 | 32 | 0.42
10 | Fc1c(Cl)cccc1C(c1cccnc1)c1cnc[nH]1 (stereo not drawn) [3-((3-chloro-2-fluorophenyl)(1H-imidazol-5-yl)methyl)pyridine] | > 10000 | 0.28 | 5.2 | 1.34 | 64 | 0.55
11 | Fc1c(Cl)cccc1C(c1ccncc1)c1cnc[nH]1 (stereo not drawn) [4-((3-chloro-2-fluorophenyl)(1H-imidazol-5-yl)methyl)pyridine] | > 10000 | 0.09 | 40 | 1.02 | 340 | 0.60
12 | Fc1cccc(C(c2cccnc2)c2c[nH]cn2)c1Cl (stereo not drawn) | 3370 | 0.32 | 4.8 | 0.98 | 88 | 0.87
13 | Cc1cccc(C(c2cccnc2)c2c[nH]cn2)c1C (stereo not drawn) [3-((2,3-dimethylphenyl)(1H-imidazol-5-yl)methyl)pyridine] | > 10000 | 0.19 | 0.33 | 1.25 | 14 | 0.55
14 | Fc1c(C(c2ccncc2)c2c[nH]cn2)cccc1C(F)(F)F (stereo not drawn) [4-((2-fluoro-3-(trifluoromethyl)phenyl)(1H-imidazol-5-yl)methyl)pyridine] | > 10000 | 0.14 | 45 | 1.29 | > 10000 | 0.29
15 | Fc1ccccc1C(c1ccncc1)c1c[nH]cn1 (stereo not drawn) [4-((2-fluorophenyl)(1H-imidazol-5-yl)methyl)pyridine] | > 10000 | 0.04 | 350 | 0.78 | 365 | 0.48
16 | Cc1cccc(C(c2ccccn2)c2c[nH]cn2)c1C (stereo not drawn) [2-((2,3-dimethylphenyl)(1H-imidazol-4-yl)methyl)pyridine] | 1930 | 0.39 | 0.92 | 1.22 | 356 | 0.64
17 | Fc1cccc(C(c2ccccn2)c2c[nH]cn2)c1F (stereo not drawn) [2-((2,3-difluorophenyl)(1H-imidazol-5-yl)methyl)pyridine] | > 10000 | 0.05 | 405 | 1.08 | > 10000 | 0.16
18 | c1ccc(C(c2ccccn2)c2c[nH]cn2)cc1 (stereo not drawn) [2-((phenyl)(1H-imidazol-5-yl)methyl)pyridine] | > 10000 | 0.04 | 469 | 0.87 | > 10000 | 0.09
